Active and inactive are the calls of the source. No cut-off for these calls is given here.
Key:
[1] = test system: SMA-497; assay: Induction of apoptosis in mouse SMA-497 cells assessed as necrotic cells at 0.1 uM incubated for 72 hrs by Annexin V-FITC/PI staining based flow cytometric analysis (reference value: 14.7%); assay type: functional
[2] = test system: SMA-560; assay: Induction of cell cycle arrest in mouse SMA-560 cells assessed as accumulation at G0/G1 phase at 0.1 uM incubated for 72 hrs by propidium iodide/RNase staining based flow cytomtery (Rvb= 71%); assay type: functional
[3] = test system: SMA-497; assay: Antitumor activity against mouse SMA-497 cells xenografted in VM/Dk mouse assessed as tumor cell proliferation at 100 mg/kg,po daily by Ki67 staining based immunohistochemistry analysis; assay type: functional, organism-based
[4] = test system: SMA-540; assay: In vivo inhibition of TIE-2 in VM/Dk mouse xenografted with mouse SMA-540 cells assessed as decrease in TIE-2 expression in brain blood vessels at 100 mg/kg,po daily by immunohistochemistry analysis; assay type: functional, organism-based
[5] = Toxicity in VM/Dk mouse xenografted with mouse SMA-497 cells assessed as survival rate at 100 mg/kg,po daily with 12 Gy irradition after 2days of treatment initiation (Rvb=17%); assay type: organism-based; conditions: in vivo, 48 h
[6] = molecular target: Epithelial discoidin domain-containing receptor 1 (Homo sapiens, UniProt Q08345); assay: Binding affinity to DDR1 (unknown origin) assessed as dissociation constant by KINOME scan assay
Chain of Epithelial discoidin domain-containing receptor 1 (Q08345 whole entry, the tested form may be a part): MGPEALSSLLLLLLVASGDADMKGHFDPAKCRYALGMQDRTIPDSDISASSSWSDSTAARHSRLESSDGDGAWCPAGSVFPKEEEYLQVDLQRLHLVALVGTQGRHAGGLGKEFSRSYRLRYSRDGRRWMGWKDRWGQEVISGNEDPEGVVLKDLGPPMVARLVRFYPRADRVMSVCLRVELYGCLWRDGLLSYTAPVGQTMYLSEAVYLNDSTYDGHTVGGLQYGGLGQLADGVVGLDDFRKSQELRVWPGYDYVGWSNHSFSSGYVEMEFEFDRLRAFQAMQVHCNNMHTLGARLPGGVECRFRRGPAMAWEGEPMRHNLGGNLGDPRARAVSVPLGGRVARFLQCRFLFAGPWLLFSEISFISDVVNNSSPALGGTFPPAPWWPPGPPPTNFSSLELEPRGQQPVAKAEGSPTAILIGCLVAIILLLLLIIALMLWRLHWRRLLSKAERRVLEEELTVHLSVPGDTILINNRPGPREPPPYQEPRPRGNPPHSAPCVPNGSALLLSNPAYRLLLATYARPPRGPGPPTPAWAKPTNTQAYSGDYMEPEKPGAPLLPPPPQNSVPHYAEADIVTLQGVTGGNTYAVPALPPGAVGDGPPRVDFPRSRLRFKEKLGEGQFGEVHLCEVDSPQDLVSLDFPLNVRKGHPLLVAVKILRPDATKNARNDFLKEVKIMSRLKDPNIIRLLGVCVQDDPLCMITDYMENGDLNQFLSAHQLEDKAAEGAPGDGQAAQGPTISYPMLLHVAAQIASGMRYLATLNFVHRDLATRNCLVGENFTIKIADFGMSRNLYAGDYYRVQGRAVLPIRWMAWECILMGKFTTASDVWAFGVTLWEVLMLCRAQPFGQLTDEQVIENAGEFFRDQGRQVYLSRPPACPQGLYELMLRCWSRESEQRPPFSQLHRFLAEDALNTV

[7] = test system: SMA-540; assay: Cytotoxicity against mouse SMA-540 cells assessed as reduction in metabolic activity at 0.001 to 100 uM incubated for 72 hrs by MTT assay; assay type: functional, cell-based; conditions: dose 0.001-100 µM
[8] = test system: SMA-497; assay: Cytotoxicity against mouse SMA-497 cells assessed as reduction in metabolic activity at 0.001 to 100 uM incubated for 72 hrs by MTT assay; assay type: functional, cell-based; conditions: dose 0.001-100 µM
[9] = test system: SMA-497; assay: Anti-clonogenicic activity in mouse SMA-497 cells assessed as reduction in colony formation at 0.001 to 10 uM and measured after 10 days by MTT based clonogenic survival assay; assay type: functional, cell-based; conditions: dose 0.001-10 µM, time 10.0 day
[10] = Toxicity in C57Bl/6 mouse xenografted with mouse GL261 cells assessed as survival rate at 100 mg/kg,po daily (Rvb=13%); assay type: organism-based; conditions: in vivo
[11] = test system: GL261; assay: In vivo inhibition of TIE-2 in C57Bl/6 mouse xenografted with mouse GL261 cells assessed as decrease in TIE-2 expression in brain blood vessels at 100 mg/kg,po daily by immunohistochemistry analysis; assay type: functional, organism-based
[12] = test system: SMA-497; assay: Antitumor activity against mouse SMA-497 cells xenografted in VM/Dk mouse assessed as decrease in number of CD31-positive intra-tumoral vessels in tumor at 100 mg/kg,po daily with 12 Gy irradition after 2days of treatment initiation by immunohistochemistry analysis; assay type: functional, organism-based
[13] = Toxicity in VM/Dk mouse xenografted with mouse SMA-497 cells assessed as survival rate at 100 mg/kg,po daily (Rvb=14 to 15%); assay type: organism-based; conditions: in vivo
[14] = test system: SMA-560; assay: In vivo inhibition of TIE-2 in VM/Dk mouse xenografted with mouse SMA-560 cells assessed as decrease in TIE-2 expression in brain blood vessels at 100 mg/kg,po daily with 12 Gy irradition after 2days of treatment initiation by immunohistochemistry analysis; assay type: functional, organism-based
[15] = molecular target: Angiopoietin-1 receptor (Homo sapiens, UniProt Q02763); assay: Inhibition of TIE2 autophosphorylation in human HUVEC cells by Western blot analysis; assay type: cell-based
Chain of Angiopoietin-1 receptor (Q02763 whole entry): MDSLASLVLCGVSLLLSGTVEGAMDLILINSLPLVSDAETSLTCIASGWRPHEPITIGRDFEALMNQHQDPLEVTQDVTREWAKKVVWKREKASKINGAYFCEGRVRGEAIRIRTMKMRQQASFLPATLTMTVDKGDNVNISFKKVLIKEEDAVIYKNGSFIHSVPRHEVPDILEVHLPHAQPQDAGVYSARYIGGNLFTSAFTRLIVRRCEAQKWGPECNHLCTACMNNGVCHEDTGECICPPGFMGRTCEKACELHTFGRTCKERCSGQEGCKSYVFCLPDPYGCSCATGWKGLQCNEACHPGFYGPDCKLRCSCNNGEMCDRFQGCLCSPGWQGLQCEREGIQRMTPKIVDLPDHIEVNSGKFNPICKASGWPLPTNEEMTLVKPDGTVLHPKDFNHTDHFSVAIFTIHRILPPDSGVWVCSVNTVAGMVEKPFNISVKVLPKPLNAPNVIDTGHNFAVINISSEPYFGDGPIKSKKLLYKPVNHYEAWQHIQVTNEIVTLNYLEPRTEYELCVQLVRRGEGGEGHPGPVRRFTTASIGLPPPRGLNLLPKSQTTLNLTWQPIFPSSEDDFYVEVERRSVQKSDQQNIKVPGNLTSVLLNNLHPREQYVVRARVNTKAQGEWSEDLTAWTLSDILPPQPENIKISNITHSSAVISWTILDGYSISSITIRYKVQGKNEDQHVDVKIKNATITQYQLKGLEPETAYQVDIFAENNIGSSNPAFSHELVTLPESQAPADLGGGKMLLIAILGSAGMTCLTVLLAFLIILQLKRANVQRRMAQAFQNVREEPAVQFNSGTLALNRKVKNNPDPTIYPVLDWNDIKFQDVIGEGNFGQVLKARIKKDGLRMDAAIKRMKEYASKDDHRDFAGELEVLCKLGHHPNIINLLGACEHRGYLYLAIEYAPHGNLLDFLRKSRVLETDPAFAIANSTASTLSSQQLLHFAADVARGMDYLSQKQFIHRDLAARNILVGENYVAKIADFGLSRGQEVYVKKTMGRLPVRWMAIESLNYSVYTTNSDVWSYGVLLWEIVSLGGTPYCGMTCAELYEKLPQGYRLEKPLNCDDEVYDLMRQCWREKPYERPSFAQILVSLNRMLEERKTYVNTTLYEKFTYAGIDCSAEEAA

[16] = test system: SMA-497; assay: Induction of apoptosis in mouse SMA-497 cells assessed as late apoptotic cells at 0.1 uM incubated for 72 hrs by Annexin V-FITC/PI staining based flow cytometric analysis (reference value: 1.86%); assay type: functional
[17] = test system: Mus musculus; assay: In vivo inhibition of Angiopoietin-1 stimulated TIE2 autophosphorylation in lungs of CB17/scid mouse at 25 to 100 mg/kg,po for 3 hrs with angiopoietin-1 stimulation during last 15 mins treatment by immunoblot analysis; assay type: functional, organism-based; conditions: Lung, dose 25-100 mg/kg
[18] = molecular target: T1, Discoidin domain-containing receptor 2 (Homo sapiens, UniProt Q16832); assay: Binding affinity to DDR2 (unknown origin) assessed as dissociation constant by KINOME scan assay
T1 sequence (Q16832 whole entry): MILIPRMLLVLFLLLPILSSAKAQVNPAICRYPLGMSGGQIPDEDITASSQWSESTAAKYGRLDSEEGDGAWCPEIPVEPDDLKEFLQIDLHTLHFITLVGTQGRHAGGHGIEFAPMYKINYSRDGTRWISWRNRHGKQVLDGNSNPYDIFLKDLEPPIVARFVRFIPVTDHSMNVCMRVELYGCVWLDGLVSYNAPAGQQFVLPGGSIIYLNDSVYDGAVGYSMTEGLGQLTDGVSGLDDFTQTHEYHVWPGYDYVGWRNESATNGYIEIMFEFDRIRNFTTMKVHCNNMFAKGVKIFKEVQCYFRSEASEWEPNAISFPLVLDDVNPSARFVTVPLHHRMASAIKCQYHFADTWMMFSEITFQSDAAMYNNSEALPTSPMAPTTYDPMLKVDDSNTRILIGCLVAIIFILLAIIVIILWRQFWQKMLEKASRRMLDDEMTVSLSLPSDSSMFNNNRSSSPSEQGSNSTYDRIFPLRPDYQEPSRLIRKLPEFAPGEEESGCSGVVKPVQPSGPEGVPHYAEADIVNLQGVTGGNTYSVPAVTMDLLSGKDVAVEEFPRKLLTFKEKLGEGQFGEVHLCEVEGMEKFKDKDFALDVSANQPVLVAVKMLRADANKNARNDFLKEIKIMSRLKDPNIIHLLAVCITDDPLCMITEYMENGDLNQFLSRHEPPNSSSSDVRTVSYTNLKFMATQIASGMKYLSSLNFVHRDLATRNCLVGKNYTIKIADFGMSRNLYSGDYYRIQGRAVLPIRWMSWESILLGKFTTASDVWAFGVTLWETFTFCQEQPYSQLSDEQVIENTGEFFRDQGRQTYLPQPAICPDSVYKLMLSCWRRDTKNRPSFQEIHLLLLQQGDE

[19] = test system: SMA-497; assay: Induction of apoptosis in mouse SMA-497 cells assessed as early apoptotic cells at 0.1 uM incubated for 72 hrs by Annexin V-FITC/PI staining based flow cytometric analysis (reference value: 0.015%); assay type: functional
[20] = Toxicity in VM/Dk mouse xenografted with mouse SMA-560 cells assessed as survival rate at 100 mg/kg,po daily with 12 Gy irradition after 2days of treatment initiation (Rvb=30%); assay type: organism-based; conditions: in vivo, 48 h
[21] = test system: SMA-560; assay: Anti-clonogenicic activity in mouse SMA-560 cells assessed as reduction in colony formation at 0.1 to 1 uM preincubated for 6 hrs followed by temozolomide addition and measured after 10 days by MTT based clonogenic survival assay; assay type: functional, cell-based; conditions: dose 0.1-1 µM, time 246.0 hrs
[22] = test system: SMA-560; assay: Induction of cell cycle arrest in mouse SMA-560 cells assessed as accumulation at sub G1 phase at 0.1 uM incubated for 72 hrs by propidium iodide/RNase staining based flow cytomtery (Rvb= 2%); assay type: functional
[23] = test system: SMA-497; assay: Antitumor activity against mouse SMA-497 cells xenografted in VM/Dk mouse assessed as decrease in tumor volume at 100 mg/kg,po daily with 12 Gy irradition after 2days of treatment initiation by H and E staining based microscopy; assay type: functional, organism-based

In the case of Cc1cc(C)c(-n2ccn3nc(-c4cccnc4)cc23)cc1NC(=O)c1cc(C#N)cc(S(F)(F)(F)(F)F)c1 [BAY-826], the Activity [1] is reported as 18.3%, the Activity [2] is reported as 67% and the Activity [3] is reported as “inactive”. The inhibition [4] was “Active”, the Survival [5] was 17% and the Kd [6] was 0.4 nM. For the same compound, the Activity [7] was “inactive”, the Activity [8] was “inactive” and the Activity [9] was “inactive”. The Survival [10] was 15%, the inhibition [11] was “Active” and the Activity [12] was “Active”. The Survival [13] was 17%, the inhibition [14] was “Active” and the EC50 [15] was 1.3 nM. The Activity [16] was 0.3%, the inhibition [17] was “Active” and the Kd [18] was 1.3 nM. The Activity [19] was 0%, the Survival [20] was 33.5% and the Activity [21] was “inactive”. For the same compound, the Activity [22] was 2% and the Activity [23] was “inactive”.
